Where two headings read alike, the source gives them in different places.

Assay [1] concerns Tilapia. Particulars: cited from earlier work.
The test system of assay [2] is glutathione peroxidase. Briefly: Glutathione peroxidase study. In kind it is biochemical. Particulars: A340 nm, 25 degrees Celsius. The protocol:
The inventive oxygen-enriched output fluid material was tested for the presence of hydrogen peroxide by testing the reactivity with glutathione peroxidase using a standard assay (Sigma). Briefly, glutathione peroxidase enzyme cocktail was constituted in deionized water and the appropriate buffers. Water samples were tested by adding the enzymatic reagents. Continuous spectrophotometric rate determination was made at A340 nm, and room temperature (25 degrees Celsius).

For `O=O` [dissolved oxygen, oxygen], the results for the “final increase in weight of the fish” value in assay [1] (high dissolved oxygen levels (approximately 7.0 ppm)), in assay [1] (low DO levels (less than 2 ppm)) and in assay [1] (mid-level DO (approximately 3.5 ppm)) were 19 grams, 1.5 g and 5 grams, respectively. Besides, the “reduction in growth rates” value in assay [1] (low DO versus high DO) is given as 92%; in assay [1] (mid-level DO versus high DO), 74%.

With `OO` [hydrogen peroxide], in assay [2], the “reactivity with glutathione peroxidase” value is listed as “strong reactivity”.
